Five molecules from US8022061B2, “N-aryl pyrazole compounds, compositions, and methods for their use” (Amgen Inc., priority 2006, dated 2011) can be followed below.

Structures are written as SMILES.

Common to all, as to assay type: in vivo
One assay has as its system ob/ob mice. Nature of the assay: Increase of circulating insulin concentrations in treated ob/ob mice. Particulars: male ob/ob mice, dose 10 mg/kg p.o., 10 minutes after dosing, relative to control group. The protocol: The results presented below exemplify that administration of the compounds as provided herein to an art-recognized animal model of human diabetes can lead to increased circulating insulin concentrations in the animal model.
Male ob/ob mice were weighed and bled from tail vein, and blood glucose levels were determined with a glucometer. Animals were placed into control and treatment groups having similar averages of glucose levels and body weights. In the morning of the following day, animals were dosed with vehicle (control group) or test article (5 ml/kg, p.o.). Blood samples were collected just before and 10 minutes after dosing, and the samples were assayed for insulin and glucose concentrations.
Table 1 provides exemplary data showing the increase of circulating insulin concentrations (expressed as ng/ml) in treated mice relative to control group at 10 minutes after dosing the treated mice. Concentrations of the exemplary compound tested in the mice are provided in the righthand column.

The subject of assay [1] is glucose-challenged animal models of diabetes. As to the kind of experiment: Glucose-challenged animal models of diabetes, circulating insulin (FIG. 1). Particulars: glucose challenge, treated animals relative to control animals. The protocol:
The following example describes how compounds can be evaluated in vivo in glucose-challenged animal models.
Art-recognized animal models of diabetes, such as type 2 diabetes, include diet-induced obese C57BL/6 (“B6”) mice and ob/ob mice. See, e.g., Breyer et al., J. Am. Soc. Nephrol. 16:27-45 (2005) and references cited therein.
Rats (aged 5-20) weeks or mice (aged 6-20 weeks) are fasted overnight beginning at 4 pm. Between 9 and 10 am, glucose levels are determined with a glucometer using whole blood samples removed from the tail. The animals are placed into control and treatment groups having similar averages of glucose levels and body weights or similar averages of body weights (B6 mice). Animals are pre-dosed with vehicle (control group) or test article (5-10 mL/kg, p.o., s.c. or i.p.) and then challenged with glucose (1 g/kg, p.o. or i.p.). Blood samples are then collected from the tail and assay for glucose and insulin levels.

For the next assay, the system named is C57B6 mice. Nature of the assay: Glucose lowering effect after oral glucose challenge in C57B6 mice. Particulars: male C57B6 mice, p.o. 30 minutes before oral glucose 3 g/kg; blood glucose before, 20 and 50 minutes after challenge; relative to control group. The protocol:
The following example describes the glucose lowering effect of compounds observed in vivo.
Male C57B6 mice were placed into control and treatment groups having similar averages of body weights. Then, animals were dosed with vehicle (control group) or test article (5 ml/kg, p.o.). Thirty minutes after dosing, glucose (3 g/kg) was orally administered in each animal. Blood samples were collected just before, 20 minutes and 50 minutes after glucose challenge and glucose concentrations in the samples was assessed. The values in Table 2 represent the observed % AUC reduction of blood glucose in the treated animals relative to the control group.

Regarding `CCCc1c(C(=O)NC(C)c2ccncc2)cnn1-c1ncc(C)c(-c2cccs2)n1` (stereo not shown) [1-[5-Methyl-4-(2-thienyl)pyrimidin-2-yl]-5-propyl-N-(1-pyridin-4-ylethyl)-1H-pyrazole-4-carboxamide], in the assay on ob/ob mice, the “Increase in Insulin” value was 3.9 ng/mL. In assay [1], the circulating insulin levels entry is given as “increases in circulating insulin levels”. Regarding `CCCCc1c(C(=O)NCc2c(C)ncn2CC(=O)O)cnn1-c1ncc(C)c(-c2cccs2)n1` [(5-{[({5-Butyl-1-[5-methyl-4-(2-thienyl)pyrimidin-2-yl]-1H-pyrazol-4-yl}carbonyl)amino]methyl}-4-methyl-1H-imidazol-1-yl)acetic acid], the “% AUC reduction in glucose levels” value in the assay on C57B6 mice was determined as 19%. In the assay on ob/ob mice, the “Increase in Insulin” value was 3.9 ng/mL. Consider `CCCc1c(C(=O)NCc2c(CO)ncn2C)cnn1-c1ncc(C)c(-c2cccs2)n1` [N-{[4-(Hydroxymethyl)-1-methyl-1H-imidazol-5-yl]methyl}-1-[5-methyl-4-(2-thienyl)pyrimidin-2-yl]-5-propyl-1H-pyrazole-4-carboxamide], for which the “% AUC reduction in glucose levels” value with C57B6 mice was 35%. Still for that read-out and setting: the value for `COCc1c(C(=O)NCc2c(CO)ncn2C)cnn1-c1ncc(C)c(N2CCCCC2)n1` [N-{[4-(Hydroxymethyl)-1-methyl-1H-imidazol-5-yl]methyl}-5-(methoxymethyl)-1-(5-methyl-4-piperidin-1-ylpyrimidin-2-yl)-1H-pyrazole-4-carboxamide] was 14%. Still for that read-out and setting: the value for `COCc1c(C(=O)NCc2c(CO)ncn2C)cnn1-c1ncc(C)c(-c2cccs2)n1` [N-{[4-(Hydroxymethyl)-1-methyl-1H-imidazol-5-yl]methyl}-5-(methoxymethyl)-1-[5-methyl-4-(2-thienyl)pyrimidin-2-yl]-1H-pyrazole-4-carboxamide] was 14%.
